What all share (test): inhibition of tumour cell growth, NCI panel, 48 h
The subject of assay [1] is A498 renal.
Assay [2] concerns UACC-62 melanoma.
The test system of assay [3] is SK-OV-3 ovarian.
Assay [4] concerns HT29 colon.
For assay [5], the system named is RPMI-8226 leukemia.
The test system of assay [6] is OVCAR-4 ovarian.
Assay [7] relates to OVCAR-3 ovarian.
For assay [8], the system named is SK-MEL-28 melanoma.
The subject of assay [9] is BT-549 breast.
Assay [10] relates to SF-268 CNS.

Structures are written as SMILES.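 Tested at 5 concentrations; 48 h exposure; 96-well plates; endpoints linearly interpolated, else capped at highest concentration. At the GI50, growth is halved. The concentration for full growth arrest is given as TGI.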

In the case of `CC(C)(O)CCc1cccc(C(=O)c2cnn(-c3ccc(F)cc3)c2N)c1`, the GI50 is > 18.4 µM in [1]; > 25 µM in [2]; > 25 µM in assay [3]; > 25 µM in assay [4]; > 25 µM in assay [5]; > 23.3 µM in assay [6]. The GI50 in [7], in assay [8], in assay [9] and in [10] was > 25 µM in each case. Moreover, the TGI in [1], in assay [2], in [3], in [4], in [5] and in assay [6] was > 25 µM each time. Further, the TGI in assay [7], in assay [8], in assay [9] and in assay [10] was > 25 µM throughout.
On to `CNCC(=O)NC(CO)C(=O)NC(CO)C(=O)NC1C(C(N)=O)OC(n2ccc(N)nc2=O)C(O)C1O` (centres undefined), for which the GI50 in assay [1] was 13 µg/mL; in assay [2], 2.88 µg/mL; in [3] it was 7.66 µg/mL; in assay [4], 25.9 µg/mL; in assay [5], > 50 µg/mL; in assay [6], 0.495 µg/mL. In addition, the GI50 in [7] was 8.43 µg/mL; in [8] it was 21.7 µg/mL; in [9], 7.25 µg/mL; in [10], 1.95 µg/mL. For the same compound, the TGI in assay [1] was > 50 µg/mL; in assay [2], 16.8 µg/mL; in assay [3] it was 41.7 µg/mL; in [4], > 50 µg/mL; in assay [5], > 50 µg/mL; in assay [6], 3.41 µg/mL. Besides, the TGI in assay [7] is 29.6 µg/mL; in [8], > 50 µg/mL; in assay [9], 25.3 µg/mL; in [10], 15.6 µg/mL.
`CC1=CC(C)(C)Nc2ccc(Cc3ccc4c(c3)C(C)=CC(C)(C)N4)cc21`: the GI50 in [1] was 10.9 µM; in [2], 6.95 µM; in [3], 17.7 µM; in [4] it was 12.2 µM; in [5] it was 2.02 µM; in assay [6], 7.24 µM. Besides, the GI50 in [7] was 6.4 µM; in [8], 20.3 µM; in assay [9], 28.4 µM; in assay [10], 16.6 µM. The TGI in assay [1] is 61.4 µM; in [2] it was 29 µM; in [3], 97.1 µM; in assay [4] it was > 100 µM; in assay [5], 23.5 µM; in assay [6], > 100 µM. For the same compound, the TGI is 21.3 µM in [7], > 100 µM in assay [8], > 100 µM in assay [9] and > 100 µM in [10].
Take `Cc1nn(Cc2ccccc2)cc1C(=O)Nc1sc2c(c1C(N)=O)CCC(=O)C2`: the GI50 was 3.97 µM in assay [1]; 1.59 µM in assay [2]; 2.7 µM in [3]; 2.27 µM in assay [4]; 1.18 µM in assay [5]; 1.47 µM in [6]. Further, the GI50 in assay [7] is 1.7 µM; in assay [8] it was 2.07 µM; in assay [9], 2.56 µM; in assay [10] it was 3.12 µM. Moreover, the TGI in [1] came to 28.2 µM; in assay [2], 3.4 µM; in [3], 9.22 µM; in [4], 6.58 µM; in assay [5], 4.09 µM; in assay [6] it was 3.45 µM. The TGI in [7] came out at 3.43 µM; in assay [8], 4.29 µM; in [9], 7.82 µM; in [10], 21.8 µM.
With `O=C1C(Cl)=C(Cl)C(=O)N1c1ccc(F)cc1`, the TGI in assay [1] was > 100 µM; in assay [2], 31.7 µM; in assay [3] it was > 69.2 µM; in assay [4], 49.8 µM; in [5], 59.7 µM; in assay [6], 23.8 µM. Moreover, the TGI is 32.4 µM in assay [7], 37.1 µM in assay [8], 30.1 µM in assay [9] and > 77.3 µM in [10].
As for `O=C1C(Cl)=C(Nc2cc(Cl)ccc2O)C(=O)N1Cc1ccccc1`, the GI50 in [1] is 19.7 µM; in [2], 16.2 µM; in [3], 19.7 µM; in [4], 16.4 µM; in assay [5], 11.9 µM; in assay [6], 17.2 µM. For the same compound, the GI50 was 18.6 µM in assay [7], 16.1 µM in assay [8], 20.5 µM in assay [9] and 17.5 µM in assay [10]. Moreover, the TGI in [1] amounted to 35.7 µM; in assay [2] it was 30.8 µM; in assay [3], 43.3 µM; in assay [4], 59.9 µM; in assay [5] it was 39.5 µM; in assay [6], 38.1 µM. Further, the TGI amounted to 35.8 µM in assay [7], 34.2 µM in [8], 44.3 µM in assay [9] and 35 µM in assay [10].
With `C[C@@H](CS[As](C)C)C(=O)N1CCC[C@H]1C(=O)O`, the GI50 in assay [1] is 0.804 µM; in [2], 0.207 µM; in [3], 0.625 µM; in assay [4], 0.715 µM; in assay [5] it was 0.0262 µM; in assay [6], 1.3 µM. Moreover, the GI50 in assay [7] is 0.0736 µM; in [8] it was 0.708 µM; in assay [9] it was 0.487 µM; in assay [10], 0.788 µM. Besides, the TGI in assay [1] was 9.67 µM; in [2] it was 0.855 µM; in [3] it was 14.6 µM; in [4], > 100 µM; in [5], 0.0831 µM; in assay [7] it was 0.223 µM. Besides, the results for the TGI in assay [8], in assay [9] and in assay [10] were 21.8 µM, 2.31 µM and 6.45 µM, respectively.

The record behind these values is PubChem BioAssay (NCI).
